PubChem BioAssay (NCI)
Where “and” joins values, the source holds several entries; their conditions need not be identical. Equal values may be shown once.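 Briefly, cells in 96-well plates were exposed to five compound concentrations for 48 h, and endpoints were estimated by linear interpolation. GI50 = concentration required for 50% inhibition of growth. TGI denotes the concentration required for complete inhibition of growth.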

Key:
Assay in all cases: DTP human tumour cell line panel, 48 h
[1] = system: T-47D breast
[2] = system: SF-539 CNS
[3] = system: UACC-257 melanoma
[4] = system: HS 578T breast
[5] = system: ACHN renal
[6] = system: TK-10 renal
[7] = system: RPMI-8226 leukemia
[8] = system: NCI/ADR-RES ovarian
[9] = system: HOP-92 NSCLC
[10] = system: HCC-2998 colon
[11] = system: HCT-15 colon
[12] = system: SW-620 colon
[13] = system: SK-MEL-28 melanoma

Compound: CN(/N=C/c1ccccc1C(=O)O)C1=NCCCCN1
- TGI [1]: > 100 µM
- TGI [2]: > 100 µM
- TGI [3]: > 100 µM
- TGI [4]: > 100 µM
- TGI [5]: > 100 µM
- TGI [6]: > 100 µM
- TGI [7]: > 100 µM
- TGI [8]: > 100 µM
- TGI [9]: > 100 µM
- TGI [10]: > 100 µM
- TGI [11]: > 100 µM
- TGI [12]: > 100 µM

Compound: COc1ncc(C#CC(=O)c2ccccc2)c(OC)n1
- TGI [1]: 15.8 µM
- TGI [13]: 11.4 µM
- TGI [3]: 14.7 µM
- TGI [4]: 87 µM
- TGI [5]: 3.7 µM
- TGI [7]: > 21.9 µM
- TGI [8]: 7.73 µM
- TGI [9]: 4.3 µM
- TGI [10]: 13.3 µM
- TGI [11]: 3.18 µM
- TGI [12]: 4.84 µM

Compound: Fc1cc2nc3n(c2cc1F)C(c1c(Cl)cccc1Cl)SC3 (stereo unspecified)
- TGI [1]: 31.7 µM
- TGI [2]: 37.1 µM
- TGI [13]: 28.6 µM
- TGI [3]: 27 µM
- TGI [4]: 53.2 µM
- TGI [5]: 31.7 µM
- TGI [6]: 32.2 µM
- TGI [7]: 36.5 µM
- TGI [8]: 37.7 µM
- TGI [9]: 30.8 µM
- TGI [10]: 29.3 µM
- TGI [11]: 36.7 µM
- TGI [12]: 34 µM

Compound: CCCCSC1=N/C(=C\c2ccc(N(C)C)cc2)C(Cl)=N1
- TGI [1]: > 100 µM
- TGI [2]: > 100 µM
- TGI [13]: > 100 µM
- TGI [3]: > 100 µM
- TGI [4]: > 100 µM
- TGI [5]: > 100 µM
- TGI [6]: > 100 µM
- TGI [7]: > 100 µM
- TGI [8]: > 100 µM
- TGI [9]: > 100 µM
- TGI [10]: > 100 µM
- TGI [11]: > 100 µM
- TGI [12]: > 100 µM

Compound: COc1ccc2c(c1)OC1c3ccccc3OCC21 (stereo unspecified)
- TGI [1]: > 100 µM
- TGI [2]: > 100 µM
- TGI [13]: > 100 µM
- TGI [3]: > 100 µM
- TGI [4]: > 100 µM
- TGI [5]: > 100 µM
- TGI [6]: > 100 µM
- TGI [7]: > 100 µM
- TGI [8]: > 100 µM
- TGI [9]: > 100 µM
- TGI [10]: > 100 µM
- TGI [11]: > 100 µM
- TGI [12]: > 100 µM

Compound: COc1ccc(-c2nc(SC)n(C3OC(COC(C)=O)C(OC(C)=O)C(OC(C)=O)C3OC(C)=O)c(=O)c2C#N)cc1 (stereo unspecified)
- TGI [1]: > 100 µM
- GI50 [2]: 31.3 µM and > 100 µM
- TGI [2]: 81.9 µM and > 100 µM
- TGI [13]: > 100 µM
- TGI [3]: > 100 µM
- TGI [4]: > 100 µM
- GI50 [5]: 35.8 µM and > 100 µM
- TGI [5]: > 100 µM
- TGI [6]: > 100 µM
- GI50 [7]: 47.4 µM and > 100 µM
- TGI [7]: > 100 µM
- TGI [8]: > 100 µM
- GI50 [9]: 14.1 µM and 39.2 µM
- TGI [9]: 52.9 µM and > 100 µM
- TGI [10]: > 100 µM
- TGI [11]: > 100 µM
- TGI [12]: > 100 µM

Compound: COC(=O)[C@]1(Cc2ccc3ccccc3c2)CCCCCCN1C(=O)c1ccccc1
- TGI [1]: > 54.3 µM
- TGI [2]: > 54.1 µM
- TGI [13]: > 52.1 µM
- TGI [3]: 25 µM
- TGI [4]: > 56.1 µM
- TGI [5]: > 73.2 µM
- TGI [6]: > 80.8 µM
- TGI [7]: 17.9 µM
- TGI [8]: > 49.7 µM
- TGI [9]: > 52.9 µM
- TGI [10]: > 49 µM
- TGI [11]: > 47.1 µM
- TGI [12]: > 60.3 µM

Compound: FC(F)(F)C1(c2ccccc2)SCc2nc3ccccc3n21 (stereo unspecified)
- TGI [1]: > 100 µM
- TGI [2]: > 100 µM
- TGI [13]: > 100 µM
- TGI [3]: > 100 µM
- TGI [4]: > 100 µM
- TGI [5]: > 100 µM
- TGI [6]: > 100 µM
- TGI [7]: > 100 µM
- TGI [8]: > 100 µM
- TGI [9]: > 100 µM
- TGI [10]: > 100 µM
- TGI [11]: > 100 µM
- TGI [12]: > 100 µM

Compound: COC(=O)C1SC[C@H]2C(=O)N(c3ccccc3)C(=O)N12 (stereo partly specified)
- TGI [1]: > 100 µM
- TGI [2]: > 100 µM
- TGI [13]: > 100 µM
- TGI [3]: > 100 µM
- TGI [4]: > 100 µM
- TGI [5]: > 100 µM
- TGI [6]: > 100 µM
- TGI [7]: > 100 µM
- TGI [8]: > 100 µM
- TGI [9]: > 100 µM
- TGI [10]: > 100 µM
- TGI [11]: > 100 µM
- TGI [12]: > 100 µM

Compound: Cc1ccc(NC(=S)N=Nc2c(O)[nH]c3ccccc23)cc1
- TGI [1]: > 100 µM
- TGI [2]: > 100 µM
- TGI [13]: > 100 µM
- TGI [3]: > 100 µM
- TGI [4]: > 100 µM
- TGI [5]: > 100 µM
- TGI [6]: > 100 µM
- TGI [7]: > 100 µM
- TGI [8]: > 100 µM
- TGI [9]: > 100 µM
- TGI [10]: > 100 µM
- TGI [11]: > 100 µM
- TGI [12]: > 100 µM

Compound: CCN(CCCl)c1cc(CN(C)C)cc(NC(=O)c2ccc(C(=O)Nc3ccccc3)cc2)c1
- TGI [1]: 9.91 µM
- TGI [2]: 2.26 µM
- TGI [13]: 4.36 µM
- TGI [3]: 3.27 µM
- TGI [4]: 0.583 µM
- TGI [6]: 7.57 µM
- TGI [7]: 3.14 µM
- TGI [8]: 11.4 µM
- TGI [9]: 3.87 µM
- TGI [10]: 2.51 µM
- TGI [11]: 4.53 µM
- TGI [12]: 0.339 µM

Compound: CCOc1cc(/C=C2\N=C(c3ccccc3)N(c3nc4ccccc4s3)C2=O)ccc1O
- TGI [1]: > 100 µM
- TGI [2]: > 100 µM
- TGI [13]: > 100 µM
- TGI [3]: > 100 µM
- TGI [4]: 85.6 µM
- TGI [5]: > 100 µM
- TGI [6]: > 100 µM
- TGI [7]: 65.4 µM
- TGI [8]: 67.8 µM
- TGI [9]: > 100 µM
- TGI [10]: 97.3 µM
- TGI [11]: 82.5 µM
- TGI [12]: > 100 µM

Compound: N#Cc1c2ccc([N+](=O)[O-])cc2c(=O)n2c1sc1ccccc12
- TGI [1]: 71.4 µM
- TGI [13]: > 100 µM
- TGI [3]: > 100 µM
- TGI [4]: > 100 µM
- TGI [5]: > 100 µM
- TGI [6]: 55.8 µM
- TGI [7]: 40.5 µM
- TGI [8]: 66.3 µM
- TGI [9]: 41.3 µM
- TGI [10]: 38.7 µM
- TGI [11]: > 100 µM
- TGI [12]: > 100 µM

Compound: CCOC(=O)/C=C(/C(=O)OCC)n1ccc(=O)n(CC(=O)OCC)c1=O
- TGI [1]: 2.55 µM
- TGI [2]: 7.88 µM
- TGI [13]: 3.32 µM
- TGI [3]: 7.72 µM
- TGI [4]: 26.4 µM
- TGI [5]: 1.76 µM
- TGI [6]: 2.52 µM
- GI50 [7]: 1.77 µM
- TGI [7]: 4.35 µM
- TGI [8]: 8.14 µM
- TGI [9]: 1.46 µM
- TGI [10]: 5.04 µM
- TGI [11]: 1.84 µM
- TGI [12]: 0.707 µM

Compound: CN(C)c1c(C2CC(O)C(CO)O2)c(=O)c1=O (stereo unspecified)
- TGI [1]: > 100 µM
- TGI [2]: > 100 µM
- TGI [13]: > 100 µM
- TGI [3]: > 100 µM
- TGI [4]: > 100 µM
- TGI [5]: > 100 µM
- TGI [6]: > 100 µM
- TGI [7]: > 100 µM
- TGI [8]: > 100 µM
- TGI [9]: > 100 µM
- TGI [10]: > 100 µM
- TGI [11]: > 100 µM
- TGI [12]: > 100 µM

Compound: C=C(C)C1CC2=C(O1)C(=O)c1cccc(O)c1C2=O (stereo unspecified)
- TGI [1]: 3.04 µM
- TGI [2]: 1.89 µM
- TGI [13]: 3.33 µM
- TGI [3]: 1.01 µM
- TGI [4]: 5.34 µM
- TGI [5]: 3.23 µM
- TGI [6]: 5.37 µM
- TGI [7]: 1.22 µM
- TGI [8]: 2.78 µM
- TGI [9]: 11.5 µM
- TGI [10]: 3.97 µM
- TGI [11]: 4.36 µM
- TGI [12]: 2.96 µM

Compound: COc1cc(OC2OC(CO)C(O)C(O)C2O)c2c(c1)O[C@@H]1[C@H](O)Oc3cc(OC)c(OC)cc3[C@]1(O)C2=O (stereo partly specified)
- TGI [1]: > 25 µM
- TGI [2]: > 25 µM
- TGI [13]: > 25 µM
- TGI [3]: > 25 µM
- TGI [4]: > 25 µM
- TGI [5]: > 25 µM
- TGI [6]: > 25 µM
- TGI [7]: > 25 µM
- TGI [8]: > 25 µM
- TGI [9]: > 25 µM
- TGI [10]: > 25 µM
- TGI [11]: > 25 µM
- TGI [12]: > 25 µM
